Where two headings read alike, the source gives them in different places. Where a SMILES comes first, the peptide text is derived from it. Bridges are numbered along the chain shown (N, C = ends).
How the values were obtained:
E. faecalis ATCC 19433 = experiment: Turbidity assay, MIC by optical density after 18 h; type: cell-based
commensal bacteria = experiment: Radial diffusion assay, HD-5 fragments; type: cell-based; conditions: 4 μg fragment, 2 μg full-length peptide; commensal bacteria (FIG. 3)
Description: In the RDA 2 μg of the full length and 4 μg of each fragment were used. An inhibition zone greater than 5 mm was determined as high activity, between 2.5 and 5 mm as low activity and 2.5 mm were the diameter of the punched well and therefore no activity.
(§1) Antimicrobial activity of all peptides was tested with a modified radial diffusion assay from Lehrer et al^12 Shortly described, log-phase bacteria grew (anaerobic bacteria with AnaeroGen, Oxoid in anaerobic jars) in liquid tryptic soy broth (TSB) (Becton Dickinson). After several wash steps in 10 mM sodium phosphate buffer pH 7.4, 4×10^6 cfu/ml was used per assay. To measure the antibacterial effect of the identified peptide fragments, the bacteria were incubated in 10 mM sodium phosphate (pH 7.4) containing 0.3 mg/ml TSB powder and 1% (w/v) low EEO-agarose (Applichem). Peptide fragments were then pipetted into punched wells and allowed to diffuse for 3 hours at 37° C. After that a nutrient rich gel with 6% TSB (w/v) and 1% agarose in 10 mM sodium phosphate buffer was poured on top of the first gel. After 24 hours the inhibition zones were measured. […] All experiments were carried out at least three times.

pathogenic bacteria = experiment: Radial diffusion assay, HD-5 fragments; type: cell-based; conditions: pathogenic Gram-positive and Gram-negative bacteria (FIG. 4)
Description: A heat map system with high activity (inhibition zone in the RDA>5 mm), low activity (2.5 to 5 mm) and no activity (2.5 mm) was used.
as §1

E. coli MC1000 = experiment: Transmission electron microscopy of peptide treated bacteria; type: cell-based; conditions: 200 μg/ml, 2 hours
Description: Transmission electron microcscopy experiments were performed as previously described^11. 6×10^8 cfu E. coli MC1000 was incubated with 200 μg/ml of each peptide for 2 hours. Bacteria were fixed in Karnovsky's fixative, embedded in agarose, coagulated, cut in small blocks and fixed again in Karnovsky's solution. After post-fixation and embedding in glycid ether blocks were cut using an ultra-microtome. Sections (30 nm) were mounted on copper grids and analyzed using a Zeiss LIBRA 120 transmissions electron microscope.

A. baumannii 4-MRGN = type: cell-based
Description: (§2) The tested bacteria were incubated overnight in 1×TSB broth, centrifuged and washed with 10 mM sodium phosphate buffer containing 1% (w/v) TSB broth. 5×10^5 cfu/ml bacteria were mixed with different peptide concentrations in 10 mM sodium phosphate buffer with 1% (w/v) TSB (final volume 100 μl) and incubated for 2 hours at 37° C. Afterwards we added 100 μl 2×TSB broth and we measured the optical density at 600 nm (Spark 10M, Tecan, Austria). Bacterial growth was monitored for 12 hours, growing at 37° C. with shaking during the measurements each 30 minutes, except for Akkermansia muciniphila which were incubated at 37° C. in an anaerobic jar and growth was measured after 72 hours.

P. aeruginosa ATCC 27853 = type: cell-based
Description: as §2

[1] = Incubation of reduced peptide with human duodenal fluid, LC/MS; type: in vitro ADME; conditions: after reduction with 2 mM TCEP; duodenal fluid 30 minutes at 37° C.
Description: 2.5 μg of HD-5 or HD-6 were incubated in 50 mM NH4HCO3 buffer (pH 8.0) (Fluka) with 2 mM tris(2-carboxyethyl) phosphine for 15 minutes at 37° C. Afterwards human duodenal fluid was added and incubated for additional 30 minutes at 37° C. At last, formic acid and acetonitrile was added in a final concentration of 0.5% and 10%, respectively, and analyzed the samples by mass spectrometry. Mass spectrometry was performed as a LC/MS system using an Agilent 1200 series HPLC with an Agilent Advanced Bio Peptide Map (2.1×150 mm, 2.7 μm) column with a flow of 0.4 ml/min at 55° C. column temperature and a 6540 UHD Q-TOF LC/MS system (Agilent) for mass analysis. The samples were separated by a gradient of acetonitrile in 0.1% formic acid. The gradient started at 2% acetonitrile for 4 minutes and then increased during 35 minutes to 45%. Mass spectrometric analyses were performed in single MS mode from 100 to 3400 m/z with positive ion polarity and were analyzed by Agilent MassHunter Quantitative Analysis B 06.00 software.

Compound	antimicrobial activity in radial diffusion assay (commensal bacteria)	antimicrobial activity in radial diffusion assay (pathogenic bacteria)	phenotype of peptide treated bacteria (TEM) (E. coli MC1000)	susceptibility to proteolytic digestion [1]	other results
CTRATYCRG [random amino acid structure of HD51-9]	–	–	–	–	antimicrobial activity, in words (E. faecalis ATCC 19433): complete dissolving of bactericidal effects
CC[C@H](C)[C@H](NC(=O)[C@H](CCC(=O)O)NC(=O)[C@H](CS)NC(=O)[C@@H](NC(=O)CNC(=O)[C@H](CO)NC(=O)[C@H](CC(C)C)NC(=O)[C@H](CO)NC(=O)[C@H](CCC(=O)O)NC(=O)[C@H](CCCNC(=N)N)NC(=O)[C@@H](NC(=O)[C@H](C)NC(=O)[C@H](CS)NC(=O)[C@H](CCCNC(=N)N)NC(=O)CNC(=O)[C@@H](NC(=O)[C@H](CCCNC(=N)N)NC(=O)[C@H](CS)NC(=O)[C@H](Cc1ccc(O)cc1)NC(=O)[C@H](CS)NC(=O)[C@@H](NC(=O)[C@H](C)N)[C@@H](C)O)[C@@H](C)O)[C@@H](C)O)C(C)C)C(=O)N[C@@H](CO)C(=O)NCC(=O)N[C@@H](CCCNC(=N)N)C(=O)N[C@@H](CC(C)C)C(=O)N[C@@H](Cc1ccc(O)cc1)C(=O)N[C@@H](CCCNC(=N)N)C(=O)O [HD-51-28] (H-ATCYCRTGRCATRESLSGVCEISGRLYR-OH; N-terminus and C-terminus assumed)	exhibited antimicrobial properties, albeit to a lesser extent than HD-51-9	only minimally active or more selective in terms of different strains	bigger aggregation inside the bacteria	–	–
C[C@H](N)C(=O)N[C@H](C(=O)N[C@@H](CS)C(=O)N[C@@H](Cc1ccc(O)cc1)C(=O)N[C@@H](CS)C(=O)N[C@@H](CCCNC(=N)N)C(=O)N[C@H](C(=O)NCC(=O)N[C@@H](CCCNC(=N)N)C(=O)N[C@@H](CS)C(=O)N[C@@H](C)C(=O)N[C@H](C(=O)N[C@@H](CCCNC(=N)N)C(=O)O)[C@@H](C)O)[C@@H](C)O)[C@@H](C)O [HD-51-13] (H-ATCYCRTGRCATR-OH; N-terminus and C-terminus assumed)	exhibited antimicrobial properties, albeit to a lesser extent than HD-51-9	–	bigger aggregation inside the bacteria	–	–
CC[C@H](C)[C@@H]1NC(=O)[C@H](CCC(=O)O)NC(=O)[C@@H]2CSSC[C@@H]3NC(=O)[C@H](Cc4ccc(O)cc4)NC(=O)[C@@H](NC(=O)[C@@H](NC(=O)[C@H](C)N)[C@@H](C)O)CSSC[C@@H](C(=O)N[C@@H](CCCNC(=N)N)C(=O)O)NC(=O)[C@H](CSSC[C@H](NC(=O)[C@H](CCCNC(=N)N)NC(=O)CNC(=O)[C@H]([C@@H](C)O)NC(=O)[C@H](CCCNC(=N)N)NC3=O)C(=O)N[C@@H](C)C(=O)N[C@@H]([C@@H](C)O)C(=O)N[C@@H](CCCNC(=N)N)C(=O)N[C@@H](CCC(=O)O)C(=O)N[C@@H](CO)C(=O)N[C@@H](CC(C)C)C(=O)N[C@@H](CO)C(=O)NCC(=O)N[C@@H](C(C)C)C(=O)N2)NC(=O)[C@H](CC(C)C)NC(=O)[C@H](CCCNC(=N)N)NC(=O)[C@H](Cc2ccc(O)cc2)NC(=O)[C@H](CC(C)C)NC(=O)[C@H](CCCNC(=N)N)NC(=O)CNC(=O)[C@H](CO)NC1=O [HD-5, reference compound] (H-ATCYCRTGRCATRESLSGVCEISGRLYRLCCR-OH; disulfide 3-31, 5-20, 10-30 (inferred); N-terminus and C-terminus assumed)	broad antimicrobial activity	strong effect on the growth of every tested bacterium	detached inner membrane and small vesicular structures around the bacteria cell envelope	digested by intestinal proteases	MIC (A. baumannii 4-MRGN; 4-MRGN, 12 h): 6.25 µM; MIC (A. baumannii 4-MRGN; A. baumannii 4-MRGN, after 12 hours, listed as fl): 22.4 mg/L; MIC (P. aeruginosa ATCC 27853; ATCC 27853, 12 h): 25 µM; MIC (P. aeruginosa ATCC 27853; P. aeruginosa ATCC 27853, after 12 hours, listed as fl): 89.7 mg/L
AFTCHCRRSCYSTEYSYGTCTVMGINHRFCCL [HD-6]	–	–	–	protected against proteolytic digestion	–

— US12358949B2, “Defensin fragments for use in therapy or prophylaxis” (priority 2019, dated 2025)
